Assay results published in US7576109B2, “1,3,4-oxadiazol-2-ones as PPAR delta modulators and their use thereof” (Aventis Pharmaceuticals Inc., priority 2004, dated 2009).

System: rat oligodendrocyte cultures
Assay: Primary rat oligodendrocyte differentiation assay (myelin basic protein expression)
Assay type: cell-based
Settings: primary rat oligodendrocytes, compared to untreated controls
Source text: • 1. Primary rat oligodendrocyte progenitor cells are obtained from the neocortex of newborn (postnatal days 2-3) rats or mice and are enriched, after removal of microglia, by mechanical separation from the astrocytic monolayer using a modification of the technique originally described by McCarthy and de Vellis (1980). • 2. Remove the meninges from neonatal rat brain and mechanically dissociate tissue. Plate cells on T75 flasks and feed cells with DMEM/F12+10% FBS. • 3. Collect oligodendrocytes growing on the astrocyte bed layer by shaking-off method fourteen days after the original prep date. Centrifuge the suspension and resuspend the cell pellet in serum free media (SFM; DMEM combined with 25 μg/ml transferring, 30 nM triiodothyronine, 20 nM hydrocortisone, 20 nM progesterone, 10 nM biotin, 1× trace elements, 30 nM selenium, 1 μg/ml putrescine, 0.1% BSA, 5 U/ml PenStrep, 10 μg/ml insulin) supplemented with the following growth factors: Platelet derived growth factor-AA (PDGF) and fibroblast growth factor-2 (FGF). • 4. Plate the cells on PDL-coated dishes and incubate at 37° C. with 6-7% CO2. • 5. Media components are replaced every 48 hr to keep the cells in a progenitor state. Progenitor Cell Passaging to Increase Cell Numbers for Screening Assays: • 1. When the culture are confluent, rinse the culture with PBS, add trypsin and incubate for ˜2-3 min at 37° C. • 2. Neutralize and centrifuge the cell suspension at 900 g for 5 min. • 3. Resuspend the cell pellet in SFM+PDGF/FGF. • 4. Feed the cells with fresh growth factors every 48 hrs to keep enrich for rapidly dividing progenitor cells. • 5. Cells are passaged no more than 4-5 times prior to experimental assays. • 6. All experiments involving oligodendrocyte progenitor cells were done using cells that were continuously maintained under these conditions. Greater than 95% of all cells were A2B5 immunopositive and expressed 2′3′-cyclic nucleotide 3′-phosphodiesterase II mRNA. • 7. To generate mature oligodendrocytes, 24 h after plating progenitor cells were switched to SFM supplemented with or without IGF-I and grown under these conditions for 7 d prior to experimental assays. • 8. Alternatively, the enriched rat Central Glia-4 (CG4) progenitor cell line may be used, which is maintained in base media (DMEM, with 2 mM glutamine, 1 mM sodium pyruvate, biotin (40 nM), insulin (1 μM) and N1) supplemented with 30% conditioned media from the B-104 neuroblastoma cell line. To induce differentiation, CG4 cells are switched to base media with 1% fetal calf serum (removed after 2 days) and insulin (500 nM). A2B5 and MBP immunoreactivity is used to confirm >95% enrichment in immature and mature cultures, respectively. Rat/Mouse Culture Compound Treatment: • 1. […]

| SMILES | Fold Increase in Myelin Basic Protein Expression in Oligodendrocyte Differentiation Assay (concentration 10 μM) | Fold Increase in Myelin Basic Protein Expression in Oligodendrocyte Differentiation Assay (concentration 1 μM) |
| --- | --- | --- |
| Cc1nc(-c2ccc(C(F)(F)F)cc2)sc1COc1ccc(-c2n[nH]c(=O)o2)cc1 [Example 10, 5-{4-[4-Methyl-2-(4-trifluoromethyl-phenyl)-thiazol-5-ylmethoxy]-phenyl}-3H-[1,3,4]oxadiazol-2-one] | 1.5 fold (10) | – |
| Cc1nc(-c2ccc(C(F)(F)F)cc2)sc1COCc1ccc(-c2n[nH]c(=O)o2)cc1 [Example 14] | – | 1.5 fold (1) |
| CCCCc1nc(-c2ccc(C(F)(F)F)cc2)sc1COc1ccc(-c2n[nH]c(=O)o2)c(Cl)c1 [Example 23] | – | 2 fold (1) |
| CCCCc1nc(-c2ccc(C(F)(F)F)cc2)sc1COc1ccc(Cc2n[nH]c(=O)o2)cc1 [Example 31, 5-{4-[4-Butyl-2-(4-trifluoromethyl-phenyl)-thiazol-5-ylmethoxy]-benzyl}-3H-[1,3,4]oxadiazol-2-one] | – | 2 fold (1) |
